For four compounds, IC50 and Activity results are on record in ChEMBL document CHEMBL1141736, “DNA polymerase and topoisomerase II inhibitors from Psoralea corylifolia” (J Nat Prod, 1998).

Structures are written as SMILES. Active and inactive are the calls of the source. The calls are words filed in the database; no cut-off is given here.

What all share (format): cell-based
Experiment [1] has as its target DNA topoisomerase 2-alpha (Homo sapiens, UniProt P11388). Description: Inhibition of DNA topoisomerase 2 in human HeLa cells by kinetoplast DNA decantation assay.
Experiment [2] deals with CV-1. Description: Inhibition of replicative DNA polymerase […] in SV40 virus infected african green monkey CV1 cells. As to conditions: Chlorocebus aethiops.
The test system of experiment [3] is CV-1. Briefly: Inhibition of replicative DNA polymerase epsilon in SV40 virus infected african green monkey CV1 cells. As to conditions: Chlorocebus aethiops.
In experiment [4] the test system is CV-1. Description: Inhibition of replicative DNA polymerase gamma in SV40 virus infected african green monkey CV1 cells. As to conditions: Chlorocebus aethiops.

What is called IC50 is the concentration that inhibits the measured activity by half.

Chain of DNA topoisomerase 2-alpha (P11388 whole entry): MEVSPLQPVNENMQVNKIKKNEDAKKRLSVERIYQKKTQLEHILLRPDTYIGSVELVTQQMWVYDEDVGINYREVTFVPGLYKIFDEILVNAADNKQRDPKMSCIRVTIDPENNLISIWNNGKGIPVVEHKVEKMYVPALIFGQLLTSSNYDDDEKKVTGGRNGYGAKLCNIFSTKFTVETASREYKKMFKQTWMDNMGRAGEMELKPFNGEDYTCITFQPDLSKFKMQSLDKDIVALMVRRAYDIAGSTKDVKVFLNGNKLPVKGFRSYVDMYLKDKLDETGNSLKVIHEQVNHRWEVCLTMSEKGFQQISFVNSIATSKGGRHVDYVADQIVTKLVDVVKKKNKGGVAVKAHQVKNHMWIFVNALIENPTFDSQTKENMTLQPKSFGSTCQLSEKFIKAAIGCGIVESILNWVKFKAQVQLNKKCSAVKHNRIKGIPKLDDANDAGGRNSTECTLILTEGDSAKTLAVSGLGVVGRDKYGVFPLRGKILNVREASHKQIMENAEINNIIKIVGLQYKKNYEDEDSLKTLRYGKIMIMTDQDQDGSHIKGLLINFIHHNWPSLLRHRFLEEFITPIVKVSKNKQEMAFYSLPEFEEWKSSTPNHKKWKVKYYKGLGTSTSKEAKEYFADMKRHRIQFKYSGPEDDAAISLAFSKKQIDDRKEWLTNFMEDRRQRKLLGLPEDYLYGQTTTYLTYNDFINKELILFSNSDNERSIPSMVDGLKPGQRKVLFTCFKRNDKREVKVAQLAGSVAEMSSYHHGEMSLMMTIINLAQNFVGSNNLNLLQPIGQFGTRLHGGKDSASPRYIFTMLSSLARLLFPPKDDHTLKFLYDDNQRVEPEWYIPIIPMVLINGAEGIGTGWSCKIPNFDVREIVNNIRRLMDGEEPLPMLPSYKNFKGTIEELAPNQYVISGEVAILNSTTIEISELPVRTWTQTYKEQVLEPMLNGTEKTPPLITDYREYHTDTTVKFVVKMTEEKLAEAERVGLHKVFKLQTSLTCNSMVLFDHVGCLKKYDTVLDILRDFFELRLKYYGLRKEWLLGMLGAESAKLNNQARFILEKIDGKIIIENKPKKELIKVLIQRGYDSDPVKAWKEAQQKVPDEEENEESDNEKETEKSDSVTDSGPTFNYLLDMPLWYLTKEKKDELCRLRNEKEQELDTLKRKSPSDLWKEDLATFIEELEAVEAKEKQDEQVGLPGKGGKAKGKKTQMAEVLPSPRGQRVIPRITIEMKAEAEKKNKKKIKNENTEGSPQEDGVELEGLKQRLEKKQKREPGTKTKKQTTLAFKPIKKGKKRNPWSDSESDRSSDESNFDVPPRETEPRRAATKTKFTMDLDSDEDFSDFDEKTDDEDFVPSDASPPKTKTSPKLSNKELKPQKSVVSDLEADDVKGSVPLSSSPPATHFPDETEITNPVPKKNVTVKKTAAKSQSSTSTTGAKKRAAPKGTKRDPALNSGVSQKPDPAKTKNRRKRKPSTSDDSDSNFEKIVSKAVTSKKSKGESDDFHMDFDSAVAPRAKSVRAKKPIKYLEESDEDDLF

In experiment [1], `O=c1ccc2c(ccc3ccoc32)o1` [BAKUCHICIN] came in with an IC50 of 404 µM.
Consider `O=c1ccc2cc3ccoc3cc2o1`, for which the result in experiment [1] was inactive.
With `C=C[C@@](C)(/C=C/c1ccc(O)cc1)CCC=C(C)C`, the result in experiment [2] and in experiment [4] was inactive. The outcome in experiment [3] was Active.
Turning to `CC(C)=CCc1cc(-c2coc3cc(O)ccc3c2=O)ccc1O`, the outcome in experiment [1] was inactive.
